Results on three compounds are retold here after ChEMBL document CHEMBL1806424, “The novel 3,4-dihydropyrimidin-2(1H)-one urea derivatives of N-aryl urea: synthesis, anti-inflammatory, antibacterial and antifungal activity evaluation” (2011).

Structures are written as SMILES. Values after ≈ are worked out from the molar mass of the structure shown. Active and inactive are the calls of the source. The rule behind the calls is not given here.

The subject of experiment [1] is THP-1. In words: Antiinflammatory activity in human THP1 cells assessed as inhibition of LPS-induced IL6 production at 1 uM treated 30 mins before LPS challenge measured after 24 hrs by ELISA. In kind it is functional. (In general: In an ELISA, binding on a coated surface is turned into a signal by an enzyme label.)
For experiment [2], the system named is THP-1. In words: Antiinflammatory activity in human THP1 cells assessed as inhibition of LPS-induced TNFalpha production at 1 uM treated 30 mins before LPS challenge measured after 24 hrs by ELISA. In kind it is functional.
The subject of experiment [3] is Aspergillus flavus. The experiment is described as follows: Antifungal activity against Aspergillus flavus. Format: functional.
Experiment [4] relates to Aspergillus niger. The experiment is described as follows: Antifungal activity against Aspergillus niger. Format: functional.
Experiment [5] has as its system Staphylococcus aureus. In words: Antibacterial activity against Staphylococcus aureus. In kind it is functional.
In experiment [6] the test system is Candida albicans. In words: Antifungal activity against Candida albicans. Format: functional.
The subject of experiment [7] is Aspergillus niger. In words: Ratio of miconazole MIC to compound MIC for Aspergillus niger. Format: functional.
The subject of experiment [8] is Escherichia coli. In words: Ratio of ciprofloxacin MIC to compound MIC for Escherichia coli. In kind it is functional.
Experiment [9] relates to Salmonella typhimurium. The experiment is described as follows: Ratio of ciprofloxacin MIC to compound MIC for Salmonella Typhimurium. In kind it is functional, Salmonella enterica subsp. enterica serovar Typhimurium.
Experiment [10] has as its system Fusarium solani. In words: Ratio of miconazole MIC to compound MIC for Fusarium solani. In kind it is functional.
For experiment [11], the system named is THP-1. The experiment is described as follows: Antiinflammatory activity in human THP1 cells assessed as inhibition of LPS-induced IL6 production at 10 uM treated 30 mins before LPS challenge measured after 24 hrs by ELISA. Format: functional.
Experiment [12] has as its system Escherichia coli. In words: Antibacterial activity against Escherichia coli. In kind it is functional.
In experiment [13] the test system is Bacillus subtilis. In words: Antibacterial activity against Bacillus subtilis. Format: functional.
Experiment [14] relates to Fusarium solani. The experiment is described as follows: Antifungal activity against Fusarium solani. Format: functional.
Experiment [15] concerns THP-1. In words: Antiinflammatory activity in human THP1 cells assessed as inhibition of LPS-induced TNFalpha production at 10 uM treated 30 mins before LPS challenge measured after 24 hrs by ELISA. Format: functional.
The test system of experiment [16] is Bacillus subtilis. The experiment is described as follows: Ratio of ciprofloxacin MIC to compound MIC for Bacillus subtilis. In kind it is functional.
Experiment [17] relates to Candida albicans. In words: Ratio of miconazole MIC to compound MIC for Candida albicans. Format: functional.
The subject of experiment [18] is Staphylococcus aureus. In words: Ratio of ciprofloxacin MIC to compound MIC for Staphylococcus aureus. Format: functional.
Experiment [19] deals with Aspergillus flavus. In words: Ratio of miconazole MIC to compound MIC for Aspergillus flavus. In kind it is functional.
Experiment [20] has as its system Salmonella typhimurium. In words: Antibacterial activity against Salmonella Typhimurium. Format: functional, Salmonella enterica subsp. enterica serovar Typhimurium. The note with it: Salmonella enterica.
Experiment [21] concerns Bacillus subtilis. The experiment is described as follows: Antibacterial activity against Bacillus subtilis at 200 ug/ml. Format: functional, organism-based.
Experiment [22] has as its system Candida albicans. In words: Antifungal activity against Candida albicans at 200 ug/ml. In kind it is functional, organism-based.
Experiment [23] concerns Salmonella typhimurium. The experiment is described as follows: Antibacterial activity against Salmonella Typhimurium at 200 ug/ml. Format: functional, organism-based. The settings on record: Salmonella enterica subsp. enterica serovar Typhimurium.
Experiment [24] deals with Fusarium solani. The experiment is described as follows: Antifungal activity against Fusarium solani at 200 ug/ml. Format: functional, organism-based.
For experiment [25], the system named is Aspergillus flavus. In words: Antifungal activity against Aspergillus flavus at 200 ug/ml. In kind it is functional, organism-based.
For experiment [26], the system named is Aspergillus niger. In words: Antifungal activity against Aspergillus niger at 200 ug/ml. In kind it is functional, organism-based.
Experiment [27] has as its system Staphylococcus aureus. The experiment is described as follows: Antibacterial activity against Staphylococcus aureus at 200 ug/ml. In kind it is functional, organism-based.

With `C[C@@H]1C[C@H]2[C@@H]3CCC4=CC(=O)C=C[C@]4(C)[C@@]3(F)[C@@H](O)C[C@]2(C)[C@@]1(O)C(=O)CO` [DEXAMETHASONE], the inhibition – broadly, the share of the control response that was lost under treatment – at 1 µM in [1] is 84%; in [2], 71%.

For `CCOC(=O)C1=C(C)NC(=S)NC1c1ccc(NC(=O)Nc2ccccc2F)cc1` (stereo not given), the minimal inhibitory concentration (MIC) (commonly the least concentration at which growth counts as inhibited) amounted to 10 µg/mL (≈ 23.3 µM) in experiment [3]; 10 µg/mL (≈ 23.3 µM) in [4]; 10 µg/mL (≈ 23.3 µM) in experiment [5]; 10 µg/mL (≈ 23.3 µM) in experiment [6]; 10 µg/mL (≈ 23.3 µM) in experiment [12]; 15 µg/mL (≈ 35 µM) in experiment [13]. The MIC in experiment [14] amounted to 15 µg/mL (≈ 35 µM); in experiment [20], 40 µg/mL (≈ 93.4 µM). Further, the Ratio in experiment [7] came out at 2.5; in [8], 1.5; in experiment [9] it was 1.5; in experiment [10], 2.5; in experiment [16] it was 1.5; in experiment [17] it was 2.5. Also, the values for the Ratio in [18] and in experiment [19] were 1.5 and 2.5, respectively. Moreover, the figures for the inhibition at 10 µM in experiment [11] and in [15] were 40% and 0%, respectively.

Turning to `CCCCc1ccc(NC(=O)Nc2ccc(C3NC(=S)NC(C)=C3C(=O)OCC)cc2)cc1` (stereo not given), the outcome in experiment [21], in experiment [22], in experiment [23], in [24], in experiment [25] and in experiment [26] was inactive. Moreover, the outcome in [27] was inactive. Further, the inhibition at 10 µM in [11] came out at 10%; in experiment [15] it was 0%. For the same compound, inhibition of growth in experiment [12] (MIC) required 95 µg/mL (≈ 204 µM).
